One data set concerns human smooth muscle cell. Nature of the data set: in vitro human smooth muscle cell culture testing, incorporated thymidine. It counts as cell-based. Particulars: exposure for 8 hours, concentrations 0.0001-1 μM. The method, then: The amounts of incorporated thymidine for samples of Myolimus of varying concentrations (0.0001, 0.001, 0.01, 0.1, and 1 μM) and of rapamycin of varying concentrations (0.0001, 0.001, 0.01, 0.1, and 1 μM) were measured after exposure for 8 hours (as shown in FIG. 1). The IC50 of both Myolimus and Rapamycin was 0.1 nM indicating potent anti-proliferative properties.

The subject of a further data set is MMP-9. Nature of the data set: cytokine inhibition in LPS-activated macrophages, ELISA (MMP-9). Particulars: 10 nM. It counts as cell-based. The method, then:
(§1) In cell culture studies, macrophages were activated to secrete cytokines such as MMP-9 and MCP-1 by treating the cells to E Coli lippopolysaccharide (LPS). Inhibition of these cytokines upon treatment of the activated macrophages with Myolimus and rapamycin with 10 nM concentration was tested using ELISA assay.
A general note: An ELISA detects its analyte on a solid surface through an enzyme-linked reagent.

For the next data set, the system named is MCP-1. Nature of the data set: cytokine inhibition in LPS-activated macrophages, ELISA (MCP-1). The data set is classed as cell-based. The following applies: 10 nM. The protocol:
as §1

The conditions of data set [1]: cited from earlier work.
The conditions of data set [2]: in vivo; cited from earlier work.

What is called IC50 is the concentration at which inhibition is half-maximal. A lower IC50 goes with greater potency in that assay. Compound `CO[C@H]1C[C@@H]2CC[C@@H](C)[C@@](O)(O2)C(=O)C(=O)N2CCCC[C@H]2C(=O)O[C@H]([C@H](C)C[C@@H]2CC[C@@H](O)[C@H](OC)C2)CC[C@H](C)/C=C(\C)[C@@H](O)[C@@H](OC)C(=O)[C@H](C)C[C@H](C)/C=C/C=C/C=C/1C` [Myolimus, 32-deoxorapamycin] yielded an IC50 in the data set with human smooth muscle cell of 0.1 nM. Also, the entries for the “production of MMP-9” value in the data set with MMP-9 and in the data set on MMP-9 (listed as myolimus) were “reduced the production” and “inhibiting production”, respectively. In addition, the results for the “production of MCP-1” value with MCP-1 and with MCP-1 (listed as myolimus) were “reduced the production” and “inhibiting the production”, respectively.

Turning to `CO[C@H]1C[C@@H]2CC[C@@H](C)[C@@](O)(O2)C(=O)C(=O)N2CCCC[C@H]2C(=O)O[C@H]([C@H](C)C[C@@H]2CC[C@@H](O)[C@H](OC)C2)CC(=O)[C@H](C)/C=C(\C)[C@@H](O)[C@@H](OC)C(=O)[C@H](C)C[C@H](C)/C=C/C=C/C=C/1C` [Rapamycin], in the data set on human smooth muscle cell, the IC50 was 0.1 nM. Further, the “production of MMP-9” value in the data set with MMP-9 is “increased the production”. Besides, the “production of MCP-1” value in the data set with MCP-1 is listed as “did not have any impact”. Further, in data set [1], the solubility in water result is reported as “only very slightly soluble”. For the same compound, in data set [2], the bioavailability entry was “very low and variable”.

(Values after patent publication US20160175288A1, “MACROCYCLIC LACTONE COMPOUNDS AND METHODS FOR THEIR USE” (Elixir Medical Corporation, priority 2008, published 2016).)
